The source of these data is patent US20250108062A1, “VITAMIN NANOCLUSTERS AS THERAPEUTIC AND NUTRACEUTIC AGENTS AND CARRIERS” (FONDAZIONE ISTITUTO ITALIANO DI TECNOLOGIA, priority 2022, published 2025).

The test system of this data set is Bone Marrow Derived Monocytes (BMDM). Put plainly: MTT cell viability / toxicity on BMDMs. Conditions: 24, 48, 72 h, all tested concentrations.

Protocol: After 24, 48, or 72 h of incubation, the culture medium was removed, a MTT solution was added to each well according to the manufacturer's instruction. The absorbance of formazan crystals dissolved in EtOH was quantified using a microplate spectrophotometer at a wavelength of 570 nm, using 650 nm as the reference wavelength (Tecan, Mannedorf, Swiss). The percentage of cell viability was assessed according to the following equation:
where, Abst was the absorbance of treated cells and Abs, was the absorbance of control (untreated) cells.

With `C=C1CC[C@H](O)C/C1=C/C=C1\CCC[C@]2(C)[C@@H]([C@H](C)CCCC(C)C)CC[C@@H]12` [free Vitamin D3, Vitamin D3], the “cytotoxicity (MTT cell viability)” value was “do not induce a significant cytotoxicity”.
